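Five concentrations, 48 hours, 96-well plates. TGI is the concentration that stops growth completely.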

One assay deals with HOP-18 NSCLC. In words: NCI-60 cell line screen, 48 h.
A further assay deals with RXF-631 renal. In words: NCI-60 cell line screen, 48 h.

As to `COC(=O)C(C#CCCCCC#CC(NC(=O)OCc1ccccc1)(C(=O)OC)C(F)(F)F)(NC(=O)OCc1ccccc1)C(F)(F)F` (centres undefined), the TGI in the assay on HOP-18 NSCLC and in the assay on RXF-631 renal was > 100 µM in each case.
In the case of `C=CCNC(=O)N(CCCC(NC(C)=O)C(=O)NCc1ccccc1)Cc1ccccc1` (centres undefined), the TGI in the assay with HOP-18 NSCLC was > 100 µM.
On to `COC(=O)/C(=N\NC(=O)C[N+](C)(C)C)C(C(=O)OC)C(=O)C(=O)Nc1ccccc1C(N)=O` (centres undefined), for which the TGI in the assay with HOP-18 NSCLC is > 100 µM.
Take `COc1ccc(N=Cc2ccc(N(CCC#N)S(=O)(=O)c3ccccc3)cc2)cc1`: the TGI with HOP-18 NSCLC and with RXF-631 renal was > 100 µM throughout.
Consider `N#C/C(c1nc2ccccc2[nH]1)=c1\s/c(=C/c2ccc(Cl)cc2)c(=O)n1-c1ccccc1`, for which the TGI in the assay on HOP-18 NSCLC is > 100 µM.
For `CN(C)C(=S)/N=c1\ssc(=S)n1Cc1cccnc1`, the TGI in the assay on HOP-18 NSCLC and in the assay on RXF-631 renal was > 100 µM each time.
Regarding `Cc1ccc(N2C(=O)CS/C2=C(\C#N)c2nc3ccccc3[nH]2)cc1`, the TGI in the assay with HOP-18 NSCLC was > 100 µM.
Regarding `CCC12CCCN(Cc3ccccc3)C1c1c(n(C)c3ccccc13)C(C(=O)OC)C2` (centres undefined), the TGI with RXF-631 renal is > 239 µM.
On to `CC(=O)NNc1nc(C)c(C(=O)/C=C/c2ccccc2Cl)s1`, for which the TGI in the assay on HOP-18 NSCLC and with RXF-631 renal was > 100 µM throughout.
For the compound `CC(C)CC(NC(=O)OC(C)(C)C)C(=O)Nc1ccc(Nc2nc(F)nc(-c3c4ccccc4c4n3CCS4)n2)cc1` (centres undefined), in the assay with HOP-18 NSCLC, the TGI worked out at 50.6 µM.

The record behind these values is PubChem BioAssay (NCI).
